Laboratory results as given in ChEMBL document CHEMBL1127810, “Synthesis of high specific activity [3H]-9-cis-retinoic acid and its application for identifying retinoids with unusual binding properties” (J Med Chem, 1994).
pEC50, pIC50: −log10 of the molar value.

What was measured:
[1] = target: T1, Retinoic acid receptor RXR-beta (Homo sapiens, UniProt P28702); experiment: Binding affinity against retinoic Acid X beta receptors co-transfected into CV-1 cells; type: cell-based
T1 sequence (P28702 whole entry): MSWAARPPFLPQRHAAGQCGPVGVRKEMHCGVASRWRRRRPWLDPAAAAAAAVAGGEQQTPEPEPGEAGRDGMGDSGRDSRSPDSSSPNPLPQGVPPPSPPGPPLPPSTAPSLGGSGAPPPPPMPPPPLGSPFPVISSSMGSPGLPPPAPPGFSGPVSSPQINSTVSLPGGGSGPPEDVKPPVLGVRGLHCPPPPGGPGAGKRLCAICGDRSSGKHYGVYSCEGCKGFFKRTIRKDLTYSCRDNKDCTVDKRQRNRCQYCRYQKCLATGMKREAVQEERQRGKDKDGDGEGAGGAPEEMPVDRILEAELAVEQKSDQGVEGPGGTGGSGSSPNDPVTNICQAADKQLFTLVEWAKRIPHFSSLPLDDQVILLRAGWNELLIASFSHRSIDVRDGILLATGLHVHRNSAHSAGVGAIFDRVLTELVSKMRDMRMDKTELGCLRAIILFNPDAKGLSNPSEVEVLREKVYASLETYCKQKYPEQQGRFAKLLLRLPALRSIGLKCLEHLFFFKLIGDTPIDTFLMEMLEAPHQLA

[2] = target: T1, Retinoic acid receptor RXR-beta; experiment: Binding affinity against retinoic Acid X beta receptor using [3H]- -9-cis-Retinoic Acid in competitive binding assay
[3] = target: T2, Retinoic acid receptor RXR-alpha (Homo sapiens, UniProt P19793); experiment: Binding affinity against retinoic Acid X alpha receptors co-transfected into CV-1 cells; type: cell-based
T2 sequence (P19793 whole entry): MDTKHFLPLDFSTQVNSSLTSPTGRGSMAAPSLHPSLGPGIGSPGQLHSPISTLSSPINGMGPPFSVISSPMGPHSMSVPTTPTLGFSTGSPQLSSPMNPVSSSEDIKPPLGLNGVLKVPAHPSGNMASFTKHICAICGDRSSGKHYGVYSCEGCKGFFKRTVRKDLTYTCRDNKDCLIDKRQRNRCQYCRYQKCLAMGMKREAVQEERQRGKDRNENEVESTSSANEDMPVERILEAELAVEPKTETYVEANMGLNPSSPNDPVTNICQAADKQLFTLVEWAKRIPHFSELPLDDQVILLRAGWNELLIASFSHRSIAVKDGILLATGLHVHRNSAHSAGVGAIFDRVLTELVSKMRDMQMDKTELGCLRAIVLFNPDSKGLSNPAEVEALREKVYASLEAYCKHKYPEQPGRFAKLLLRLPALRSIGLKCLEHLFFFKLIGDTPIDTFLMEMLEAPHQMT

[4] = target: T2, Retinoic acid receptor RXR-alpha; experiment: Binding affinity against retinoic Acid X alpha receptor using [3H]- -9-cis-Retinoic Acid in competitive binding assay
[5] = target: T3, Retinoic acid receptor RXR-gamma (Homo sapiens, UniProt P48443); experiment: Binding affinity against retinoic Acid X gamma receptors co-transfected into CV-1 cells; type: cell-based
T3 sequence (P48443 whole entry): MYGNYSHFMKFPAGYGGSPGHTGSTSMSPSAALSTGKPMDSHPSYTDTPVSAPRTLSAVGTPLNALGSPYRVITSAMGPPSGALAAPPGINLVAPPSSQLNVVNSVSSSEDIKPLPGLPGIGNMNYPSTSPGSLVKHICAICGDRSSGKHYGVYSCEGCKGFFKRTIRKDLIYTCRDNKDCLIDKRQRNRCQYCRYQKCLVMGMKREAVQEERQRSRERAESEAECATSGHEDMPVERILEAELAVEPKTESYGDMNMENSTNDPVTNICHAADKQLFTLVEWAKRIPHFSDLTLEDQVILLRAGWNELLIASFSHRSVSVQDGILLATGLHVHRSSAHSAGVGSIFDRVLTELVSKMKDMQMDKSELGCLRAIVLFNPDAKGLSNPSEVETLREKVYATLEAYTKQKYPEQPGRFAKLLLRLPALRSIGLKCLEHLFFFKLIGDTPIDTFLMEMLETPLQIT

[6] = target: T3, Retinoic acid receptor RXR-gamma; experiment: Binding affinity against retinoic Acid X gamma receptor using [3H]- -9-cis-Retinoic Acid in competitive binding assay
[7] = target: T4, Retinoic acid receptor alpha (Homo sapiens, UniProt P10276); experiment: Binding affinity against retinoic Acid alpha receptors co-transfected into CV-1 cells; type: cell-based
T4 sequence (P10276 whole entry): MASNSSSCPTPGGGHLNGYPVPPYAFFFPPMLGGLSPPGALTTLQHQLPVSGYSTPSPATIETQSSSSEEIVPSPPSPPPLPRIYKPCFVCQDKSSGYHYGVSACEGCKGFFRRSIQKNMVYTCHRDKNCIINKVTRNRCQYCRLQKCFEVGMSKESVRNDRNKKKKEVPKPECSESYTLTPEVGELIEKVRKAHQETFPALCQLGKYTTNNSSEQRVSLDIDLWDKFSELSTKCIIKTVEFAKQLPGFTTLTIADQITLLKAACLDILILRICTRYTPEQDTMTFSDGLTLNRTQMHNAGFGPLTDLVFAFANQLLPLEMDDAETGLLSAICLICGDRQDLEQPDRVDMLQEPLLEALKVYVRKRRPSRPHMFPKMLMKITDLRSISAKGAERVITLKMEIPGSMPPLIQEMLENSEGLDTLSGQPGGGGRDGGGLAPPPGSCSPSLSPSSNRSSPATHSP

[8] = target: T5, Retinoic acid receptor beta (Homo sapiens, UniProt P10826); experiment: Binding affinity against retinoic Acid beta receptors co-transfected into CV-1 cells; type: cell-based
T5 sequence (P10826 whole entry): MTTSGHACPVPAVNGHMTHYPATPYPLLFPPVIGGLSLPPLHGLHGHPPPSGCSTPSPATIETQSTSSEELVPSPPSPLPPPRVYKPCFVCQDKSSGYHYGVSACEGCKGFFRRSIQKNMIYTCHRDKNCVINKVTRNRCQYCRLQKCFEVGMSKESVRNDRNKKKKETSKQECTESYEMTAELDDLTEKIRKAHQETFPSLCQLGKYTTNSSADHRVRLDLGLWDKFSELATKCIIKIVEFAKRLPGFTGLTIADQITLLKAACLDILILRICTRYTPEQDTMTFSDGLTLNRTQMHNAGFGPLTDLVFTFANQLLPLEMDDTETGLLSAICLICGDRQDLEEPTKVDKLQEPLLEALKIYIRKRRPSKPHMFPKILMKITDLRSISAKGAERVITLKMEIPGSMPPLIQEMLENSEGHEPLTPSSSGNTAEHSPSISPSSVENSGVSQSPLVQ

[9] = target: T5, Retinoic acid receptor beta; experiment: Binding affinity against retinoic Acid beta receptor using [3H]- -9-cis-Retinoic Acid in competitive binding assay
[10] = target: T4, Retinoic acid receptor alpha; experiment: Binding affinity against retinoic Acid alpha receptor using [3H]- -9-cis-Retinoic Acid in competitive binding assay
[11] = target: T6, Retinoic acid receptor gamma (Homo sapiens, UniProt P13631)
T6 sequence (P13631 whole entry): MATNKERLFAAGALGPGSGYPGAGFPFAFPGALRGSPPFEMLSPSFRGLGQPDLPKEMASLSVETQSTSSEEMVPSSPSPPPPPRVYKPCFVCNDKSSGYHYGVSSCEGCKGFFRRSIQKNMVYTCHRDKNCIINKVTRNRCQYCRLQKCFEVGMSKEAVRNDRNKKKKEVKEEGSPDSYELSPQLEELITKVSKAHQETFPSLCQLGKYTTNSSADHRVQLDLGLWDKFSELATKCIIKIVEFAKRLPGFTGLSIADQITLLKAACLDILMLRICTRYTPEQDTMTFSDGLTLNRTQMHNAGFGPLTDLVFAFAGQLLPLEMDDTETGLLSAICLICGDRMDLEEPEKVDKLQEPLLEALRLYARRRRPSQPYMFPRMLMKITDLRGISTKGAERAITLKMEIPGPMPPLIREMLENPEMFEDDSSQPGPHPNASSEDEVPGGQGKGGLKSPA
Description: Binding affinity against retinoic Acid gamma receptors co-transfected into CV-1 cells

[12] = target: T6, Retinoic acid receptor gamma; remark: listed apart in the source

SMILES	pEC50 [1]	pIC50 [2]	pEC50 [3]	pIC50 [4]	pEC50 [5]	pIC50 [6]	pEC50 [7]	pEC50 [8]	pIC50 [9]	pIC50 [10]	pEC50 [11]	pIC50 [12]
C/C(=C\c1ccc(C(=O)O)cc1)c1ccc2c(c1)C(C)(C)CCC2(C)C	< 5.00	< 6.00	< 5.00	< 6.00	< 5.00	< 6.00						
CCc1cc2c(cc1/C(C)=C/c1ccc(C(=O)O)cc1)C(C)(C)CCC2(C)C	5.70	7.30	5.54	6.49	5.59	8.00	5.77	6.51	7.12	7.00	7.64	6.60
C/C(=C\c1ccc(C(=O)O)cc1)c1cc2c(cc1C)C(C)(C)CCC2(C)C	5.93	< 6.00	5.92	7.49	5.82	7.00	6.47	6.64	5.93	6.20	6.74	6.19
C/C(=C\c1ccc(C(=O)O)cc1)c1cc2c(cc1C(C)C)C(C)(C)CCC2(C)C	< 5.00	7.30	6.52	6.49	5.57	8.00	< 5.00	< 5.00	6.82	< 6.00	6.57	< 6.00
